Source: ChEMBL document CHEMBL4257513 (Medchemcomm, 2018)
Active and inactive are the calls of the source. The rule behind the calls is not given here.

Assays:
[1] = target: T1, Tyrosinase (Agaricus bisporus) (UniProt O42713); test: Inhibition of mushroom tyrosinase at 100 uM using L-dopa as substrate preincubated for 10 mins followed by substrate addition and measured for 1 min by spectrophotometric method relative to control
T1 sequence (whole entry): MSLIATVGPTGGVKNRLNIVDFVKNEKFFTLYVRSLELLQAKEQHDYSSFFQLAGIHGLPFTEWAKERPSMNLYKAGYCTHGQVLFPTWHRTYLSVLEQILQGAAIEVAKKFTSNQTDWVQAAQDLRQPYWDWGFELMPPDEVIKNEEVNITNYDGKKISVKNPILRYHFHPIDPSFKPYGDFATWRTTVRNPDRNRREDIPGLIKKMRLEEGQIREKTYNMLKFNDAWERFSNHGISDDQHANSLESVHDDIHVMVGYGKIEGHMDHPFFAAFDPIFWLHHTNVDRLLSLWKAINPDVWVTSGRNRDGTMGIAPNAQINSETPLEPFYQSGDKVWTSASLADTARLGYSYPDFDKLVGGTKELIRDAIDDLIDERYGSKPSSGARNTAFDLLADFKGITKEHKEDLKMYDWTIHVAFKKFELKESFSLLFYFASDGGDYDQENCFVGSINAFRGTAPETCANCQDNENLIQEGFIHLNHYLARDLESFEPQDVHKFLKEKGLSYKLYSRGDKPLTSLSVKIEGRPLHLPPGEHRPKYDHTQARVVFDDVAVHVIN

Tyrosinase [2] = target: T2, Tyrosinase (Agaricus bisporus, UniProt O42713)
T2 sequence (O42713 whole entry): T1 sequence (whole entry)
Description: Inhibition of mushroom tyrosinase using L-dopa as substrate preincubated for 10 mins followed by substrate addition and measured for 1 min by spectrophotometric method

[3] = target: T1, Tyrosinase (Agaricus bisporus); test: Reversible inhibition of mushroom tyrosinase at 2 to 20 uM using L-dopa as substrate preincubated for 10 mins followed by substrate addition and measured for 1 min by spectrophotometric method
Tyrosinase [4] = target: T2, Tyrosinase; test: Mixed-type inhibition of mushroom tyrosinase using varying levels of L-dopa as substrate preincubated for 10 mins followed by substrate addition and measured for 1 min by Lineweaver-burk plot analysis
Tyrosinase [5] = target: T2, Tyrosinase; test: Mixed-type inhibition of mushroom tyrosinase assessed as inhibitory constant for enzyme-substrate complex using varying levels of L-dopa as substrate preincubated for 10 mins followed by substrate addition and measured for 1 min by Lineweaver-burk plot analysis
[6] = target: T1, Tyrosinase (Agaricus bisporus); test: Potency index, ratio of kojic acid IC50 to test compound IC50 for mushroom tyrosinase
[7] = target: T1, Tyrosinase (Agaricus bisporus); test: Reversible inhibition of mushroom tyrosinase at 5 to 20 uM using L-dopa as substrate preincubated for 10 mins followed by substrate addition and measured for 1 min by spectrophotometric method
[8] = target: T1, Tyrosinase (Agaricus bisporus); test: Reversible inhibition of mushroom tyrosinase up to 5 uM using L-dopa as substrate preincubated for 10 mins followed by substrate addition and measured for 1 min by spectrophotometric method
Tyrosinase [9] = target: T2, Tyrosinase; test: Noncompetitive inhibition of mushroom tyrosinase using varying levels of L-dopa as substrate preincubated for 10 mins followed by substrate addition and measured for 1 min by Lineweaver-burk plot analysis
Tyrosinase [10] = target: T2, Tyrosinase; test: Noncompetitive inhibition of mushroom tyrosinase assessed as inhibitory constant for enzyme-substrate complex using varying levels of L-dopa as substrate preincubated for 10 mins followed by substrate addition and measured for 1 min by Lineweaver-burk plot analysis

| SMILES | inhibition [1] [%] | IC50 (Tyrosinase [2]) [µM] | further results |
| --- | --- | --- | --- |
| Cc1ccc(C(C)C)c(OC(=O)/C=C/c2ccccc2)c1 | < 40 | > 100 |  |
| COc1ccc(C(C)=O)c(O)c1 [PAEONOL] |  | 121 |  |
| COc1ccc(C(C)=O)c(OC(=O)/C=C/c2ccccc2)c1 | < 40 | > 100 |  |
| COc1ccc(/C=C/C(=O)Oc2cc(C)ccc2C(C)C)cc1 | < 40 | > 100 |  |
| COc1cc(/C=C/C(=O)Oc2cc(C)ccc2C(C)C)ccc1O | < 40 | > 100 |  |
| COc1ccc(/C=C/C(=O)Oc2cc(OC)ccc2C(C)=O)cc1 | > 40 | 77.4 |  |
| COc1ccc(C(C)=O)c(OC(=O)/C=C/c2ccc(O)c(OC)c2)c1 | < 40 | > 100 |  |

The next lines start with results.

| inhibition [1] [%] | IC50 (Tyrosinase [2]) [µM] | SMILES | further results |
| --- | --- | --- | --- |
| < 40 | > 100 | Cc1ccc(C(C)C)c(OC(=O)/C=C/c2ccc(F)cc2)c1 |  |
| > 40 | 39 | COc1ccc(C(C)=O)c(OC(=O)/C=C/c2ccc(C)cc2)c1 |  |
|  | 4710 | O=C(O)/C=C/c1ccc(O)cc1 [COUMARIC ACID] |  |
| > 40 | 8.3 | COc1ccc(C(C)=O)c(OC(=O)/C=C/c2ccc(F)cc2)c1 | inhibition [3]: Active; Ki (Tyrosinase [4]): 10 µM; Ki (Tyrosinase [5]): 35.6 µM |
| > 40 | 164 | COc1ccc(C(C)=O)c(OC(=O)/C=C/c2ccc(Cl)cc2)c1 |  |
| < 40 | > 100 | Cc1ccc(/C=C/C(=O)Oc2cc(C)ccc2C(C)C)cc1 |  |
| < 40 | > 100 | Cc1ccc(C(C)C)c(OC(=O)/C=C/c2ccc(Cl)cc2)c1 |  |
| > 40 | 10.6 | Cc1ccc(C(C)C)c(OC(=O)/C=C/c2ccc(O)cc2)c1 | Ratio IC50 [6]: 3; inhibition [7]: Active; Ki (Tyrosinase [4]): 8 µM; Ki (Tyrosinase [5]): 72.2 µM |
| > 40 | 2 | COc1ccc(C(C)=O)c(OC(=O)/C=C/c2ccc(O)cc2)c1 | Ratio IC50 [6]: 16; inhibition [8]: Active; Ki (Tyrosinase [9]): 3.8 µM; Ki (Tyrosinase [10]): 3.8 µM |
